In patent US20070155827A1, “USE OF BENZO-FUSED HETEROCYCLE SULFAMIDE DERIVATIVES FOR THE TREATMENT OF DEPRESSION” (priority 2005, published 2007):
Entries after “also recorded” stand apart in the source; their conditions may differ.

Tested on: submissive rats
Assay: Dominant-Submissive Relations (DSR) assay: Reduction of Submissive Behavior Model (RSBM) of depression
Assay type: in vivo, Male Sprague Dawley rats
Experimental: The DSR assay is divided into two models: Reduction of Dominant Behavior Model (RDBM) of mania and Reduction of Submissive Behavior Model (RSBM) of depression. The RDBM, wherein the dominant animals are treated with test compound, is predictive of the ability of the test compound to treat mania. The RSBM, wherein the submissive animals are treated with test compound, is predictive of the ability of the test compound to treat depression.
Male Sprague Dawley rats (140 to 160 g) from Charles River Laboratories Wilmington, Mass. were used in this assay. Shipments of rats were received at two-week intervals. Each shipment went through five-day quarantine, one-week acclimation period, and one-week selection process, followed by five-weeks of drug or vehicle treatment to those pairs selected.
Rats were housed four per cage. Access to food was restricted to one hour per day after testing on Monday through Thursday. After testing on Friday, rats had free access to food until being fasted again on Sunday. At no time were the rats deprived of water. The food deprivation periods used had little effect on weight gain as the average weight of rats was about 300 g at the end of the study. At the conclusion of experiment rats were sacrificed by decapitation, the trunk blood and brains were collected for in vitro experiments and drug concentration measurements.
The basic testing apparatus consisted of two chambers connected with a tunnel only large enough to allow one rat to pass through at a time. On the floor, at the mid-point of the tunnel was a container of sweetened milk. This basic apparatus was replicated, so that a total of four pairs of rats can be video tracked simultaneously. The camera can distinguish rats marked by different colors. Thus, the rats' heads were colored for the purpose of video tracking, red in one cage and yellow in the other cage. Only one animal at a time can have comfortable access to the feeder, but both animals can drink milk during the five-minute daily session. During the five-minute daily sessions, time spent in the feeder zone by each rat was recorded by the video tracking software and saved into a text file.
The test began with a random assignment of rats into pairs. Each member of a pair was placed in an opposite chamber of the testing apparatus. The time spent in the feeder zone by each animal was recorded. During the first week (five days) of testing the animals habituate to the new environment. Dominance was assigned to the animal with the highest score during the second week of testing if three criteria were achieved. First, there must have been a significant difference (two-tailed t-test, P<0.05) between the average daily drinking scores of both animals. Second, the dominant animal score must have been at least 25% greater than the submissive animal's score. Finally, there must have been no “reversals” during the pair selection week where the putative submissive rat out-scored its dominant partner on isolated occasions. Ideally there were minimal reversals during the acclimation week as well. About twenty-five to thirty-three percent of the initial animal pairs achieved these criteria and only these pairs were continued in the study.
Significant differences between time spent on the feeder by dominant and submissive rats were determined by ANOVA using GraphPad Prism software (GraphPad Software, Inc. San Diego, Calif.) followed by a two-tailed t-test (P<0.05). Comparisons were made between treatment groups using normalized dominance level values in paired animals. The dominance level is a value that measures social relation between paired subjects. Dominance level (DL)=FTD−FTS where FTD is the feeder time of dominant rats and FTS is the feeder time of submissive rats. The normalization was conducted according to the formula: Dominance Level (week n in %)=(Dominance Level (week n))/(Dominance Level (week 2) […]

NS(=O)(=O)NC[C@H]1COc2cc(Cl)ccc2O1 [Compound #8, (2S)-(−)-N-(6-Chloro-2,3-dihydro-benzo[1,4]dioxin-2-ylmethyl)-sulfamide]
Dominance Level (DL) values vs vehicle control (2.5 mg/kg p.o.): did not significantly differ from control | consistent loss of significance between dominant and submissive rats feeder time (2.5 mg/kg p.o.): no consistent loss of significance | Dominance Level (DL) values vs vehicle control (12.0 mg/kg p.o.): significantly different from vehicle treated controls after the second, fourth and fifth week of treatment | Dominance Level (DL) values vs vehicle control (60 mg/kg p.o.): significant difference in DL values relative to vehicle starting at the first week and continuing through the treatment duration of 5 weeks | difference in DL values with fluoxetine treated group (60.0 mg/kg p.o. vs fluoxetine 10 mg/kg): statistically significant at p<0.001 after first week and p<0.05 after second week of treatment | Dominance Level (DL) values vs vehicle control (120 mg/kg p.o.): significantly different from the control group after first week, however, this significance dissipated after the second week of treatment | consistent loss of significance between dominant and submissive rats feeder time (120.0 mg/kg p.o.): no consistent loss of significance | loss of significant difference between dominant and submissive rats (Compound #8 p.o., all doses used (2.5, 12, 60, 120 mg/kg)): lost after the first week of treatment | increased submissiveness during first week of treatment (effect seen with fluoxetine) (Compound #8 treated groups, p.o.): did not show this effect | ED50 (Rattus norvegicus, po, RSBM, calculated): 6.6 ± 0.8 mg/kg | reduction of submissive behavior (p.o. once a day for 5 weeks to submissive rats, 2.5-120 mg/kg): reduce submissive behavior in a dose-dependent manner; also recorded: reduced submissive behavior
